pIC50: −log10 of the molar value. Read-outs that look alike come from different tables or passages of the source.
Legend:
[1] = test system: phosphorylation of MAPKAP-2 in U937 cells; assay: p38 MAP Kinase cellular assay: inhibition of phosphorylation of MAPKAP2 in U937 cells; format: cell-based
Description: p38 MAP Kinase Cellular Assay: Inhibition of Phosphorylation of MAPKAP2
U937 or HUT78 cells were plated in RPMI 1640, and were incubated at 37° C., 5% CO2 for 18 hours. 10 mM stocks of compounds were diluted media/0.1% DMSO to give a log or semi-log dilution series. The wells for ‘no treatment’ and ‘anisomycin’ were treated with 0.1% DMSO only. The cells were incubated at 37° C., 5% CO2 for a further 4 hours. Anisomycin was added to all wells except ‘no treatment’ at a final concentration of 10 μM. The cells were incubated at 37° C., 5% CO2 for 30 minutes before harvest. Plates were stood on ice whilst harvesting, and all following steps were carried out at 4° C. The cells were pelleted at 1000 rpm for 10 minutes at 4° C., the media aspirated, and the pellet washed with cold PBS. The pellets were lysed in 120 μl of SDS lysis buffer (62.5 mM Tris, pH 6.8, 2% SDS, 10% glycerol, 50 mM DTT, with protease inhibitors and phosphatase inhibitors added according to the manufacturers' recommendations). After 30 minutes on ice, the samples were sonicated for 5 seconds before centrifugation at 13,000 rpm 4° C. for 10 minutes to remove cell debris. 10 μl of the resulting gel samples were loaded per lane on NOVEX 4-12% Bis-Tris MOPS gels. Membranes from western transfer of gels were blotted with anti-phospho MAPKAP2, anti-phospho HSP27 and anti GAPDH according to the manufacturers' Instructions. Signal was visualised using HRP-Hnked anti-rabbit or anti-mouse antibodies, ECL reagent and ECL film. IC50 values for the various compounds were visualised from the resulting photographic images, using both band-shift and signal intensity.

[2] = test system: U937 cells; assay: Cell accumulation assay in U937 cells; format: in vitro ADME; settings: U937 versus HUT 78; result in words
Description: Cells (8×10^4/mL) were incubated at 37° C. in culture medium containing 6 μM compound in a 5% (v/v) CO2-humidified atmosphere. Incubations were terminated after 6 h by centrifugation of 25 mL aliquots of the cell suspension at 300 g for 5 minutes at 4° C. 0.2 mL samples of the culture media supernatants were added to 4 volumes of acetonitrile (Sigma-Aldrich). After decanting the supernatant, the residual cell pellet (2×10^6 cells) was extracted into 1 mL of acetonitrile. Samples were then analysed for the ester and acid metabolite at room temperature by LC/MS/MS (Sciex API3000). Chromatography was based on a MeCN (75×21 mm) column with a 5-95% (v/v) acetonitrile, 0.1% (v/v) formic acid mobile phase. For the zero time samples, the cell suspension was chilled and centrifuged as soon as the ester had been added and then extracted into acetonitrile as described. Levels in cells are expressed as ng/mL.

[3] = target: T1, p38 MAP Kinase α (Homo sapiens, UniProt Q16539); assay: p38 MAP Kinase enzyme assay; format: biochemical; settings: Table 1 (biology); compound as such, Ester for Example 1; read-out: Inhibition of P38 (IC50 nM)
T1 construct: purchased Upstate (Dundee UK)
Description: p38 MAP Kinase Enzyme Assay
The ability of compounds to inhibit p38 MAPα Kinase activity was measured in an assay performed by Upstate (Dundee UK). In a final reaction volume of 25 μL, p38 MAP Kinase α (5-10 mU) is incubated with 25 mM Tris pH 7.5, 0.02 mM EGTA, 0.33 mg/mL myelin basic protein, 10 mM MgAcetate and [γ-^33P-ATP](specific activity approx. 500 cpm/pmol, concentration as required). The reaction is initiated by the addition of the MgATP mix. After incubation for 40 minutes at room temperature, the reaction is stopped by the addition of 5 μL of a 3% phosphoric acid solution. 10 μL of the reaction is then spotted onto a P30 filtermat and washed three times for 5 minutes in 75 mM phosphoric acid and once in methanol prior to drying and scintillation counting.
Duplicate data points are generated from a 1/3 log dilution series of a stock solution in DMSO. Nine dilutions steps are made from a top concentration of […], and a ‘no compound’ blank is included. The standard radiometric filter-binding assay is performed at an ATP concentration at, or close to, the Km. Data from scintillation counts are collected and subjected to free-fit analysis by Prism software. From the curve generated, the concentration giving 50% inhibition is determined and reported.

[4] = target: T2, recombinant hCE-1 (Homo sapiens, UniProt P23141); assay: HCE-1 carboxylesterase assay; format: in vitro ADME; settings: result in words
T2 sequence (P23141 18-567): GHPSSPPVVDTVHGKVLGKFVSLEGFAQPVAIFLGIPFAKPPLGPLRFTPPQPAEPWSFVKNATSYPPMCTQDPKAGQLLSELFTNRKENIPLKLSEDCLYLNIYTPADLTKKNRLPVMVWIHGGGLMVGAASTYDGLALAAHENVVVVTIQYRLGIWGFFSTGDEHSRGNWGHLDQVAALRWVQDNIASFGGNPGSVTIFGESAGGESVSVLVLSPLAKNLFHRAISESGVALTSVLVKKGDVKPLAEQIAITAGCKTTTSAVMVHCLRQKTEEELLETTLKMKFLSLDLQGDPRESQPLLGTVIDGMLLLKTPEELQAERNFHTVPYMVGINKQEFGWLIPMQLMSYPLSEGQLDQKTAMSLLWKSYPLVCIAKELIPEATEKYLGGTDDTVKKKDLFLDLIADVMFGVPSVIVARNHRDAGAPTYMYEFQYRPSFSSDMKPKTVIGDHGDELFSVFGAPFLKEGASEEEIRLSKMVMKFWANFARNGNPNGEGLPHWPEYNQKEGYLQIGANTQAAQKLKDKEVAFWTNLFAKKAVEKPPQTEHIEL
Description: HCE-1 Carboxylesterase Assay
Hydrolysis of esters to the corresponding carboxylic acids by hCE-1 can be measured using the following procedure. At zero time, 100 μl of recombinant hCE-1 at a concentration of 6 μg/mL in phosphate assay buffer (K2PO4 100 mM, KCl 40 mM, pH 7.4) was added to an equal volume of assay buffer containing 5 μM ester substrate. After thorough mixing, triplicate samples were incubated for 0, 20 or 80 minutes at 37° C. At the appropriate time, hydrolysis was stopped by the addition of 600 μl of acetonitrile. For zero time samples, the acetonitrile was added prior to the enzyme. The samples were analysed for the ester and its corresponding carboxylic acid at room temperature by LCMS (Sciex API 3000, HP1100 binary pump, CTC PAL). Chromatography was based on a […] (75×2.1 mm) column and a mobile phase of 5-95% acetonitrile in water/0.1% formic add. Levels of the acid, the hydrolysis product, after 80 minutes are expressed in ng/mL.

T1 sequence (Q16539 whole entry): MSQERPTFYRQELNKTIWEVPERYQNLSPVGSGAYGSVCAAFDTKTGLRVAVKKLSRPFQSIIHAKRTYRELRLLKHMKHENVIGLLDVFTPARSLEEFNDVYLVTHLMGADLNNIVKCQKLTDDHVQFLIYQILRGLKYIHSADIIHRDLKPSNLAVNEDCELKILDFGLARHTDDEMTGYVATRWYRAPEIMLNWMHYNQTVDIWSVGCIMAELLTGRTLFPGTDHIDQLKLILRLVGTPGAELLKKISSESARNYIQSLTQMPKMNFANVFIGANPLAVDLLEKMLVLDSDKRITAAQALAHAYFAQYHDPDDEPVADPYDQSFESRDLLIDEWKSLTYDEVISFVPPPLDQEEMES

## CC(C)(NCCc1ccc(-n2c(N)c(C(=O)c3ccc(F)cc3F)ccc2=O)cc1)C(=O)OC1CCCC1 [Example 1]
[1]; Homo sapiens, U-937, Table 1 (biology), U937 cells, read-out: Inhibition of phosphorylation of MAPKAP-2 in U937 cells (IC50)
  pIC50: 8.00
[1]; Homo sapiens, U-937, Table 2, U937 monocyte cell line, read-out: Inhibition of phosphorylation of MAPKAP-2 in U937 cells (IC50, nM) (monocyte cell line)
  IC50: 10 nM
[1]; U937 MAPKAP-2 IC50 to P38 enzyme IC50
  Ratio cell IC50s to enzyme IC50: 0.2
[1]; U937 versus HUT 78
  potency in monocytic versus non monocytic cell lines (MAPKAP-2 phosphorylation): 100 times
[1]; versus Compound I
  potency in the p38 cellular assay compared with the parent compound: significantly more potent than the parent compound
[2]
  accumulation in monocytic versus non-monocytic cell line: only accumulates in the monocytic cell line
[3]
  IC50: 50 nM
[4]
  hydrolysis by hCE-1: hydrolysed by hCE-1

From patent publication US9636409B2, “Enzyme and receptor modulation using covalent conjugates of alpha,alpha-disubstituted glycine esters” (GlaxoSmithKline Intellectual Property Development Limited, priority 2008, dated 2017)
